Laboratory results taken from BindingDB's records for doi:10.1021/ja062999h (The Scripps Research Institute, 2006).
pIC50: −log10 of the molar value.

Key:
Details in all cases: pH 7.4; 22 °C
[1] = target: T1, Fatty-acid amide hydrolase 1 (Mus musculus, UniProt O08914); test: FAAH Competitive ABPP Using FP-Rhodamine
T1 sequence (O08914 whole entry): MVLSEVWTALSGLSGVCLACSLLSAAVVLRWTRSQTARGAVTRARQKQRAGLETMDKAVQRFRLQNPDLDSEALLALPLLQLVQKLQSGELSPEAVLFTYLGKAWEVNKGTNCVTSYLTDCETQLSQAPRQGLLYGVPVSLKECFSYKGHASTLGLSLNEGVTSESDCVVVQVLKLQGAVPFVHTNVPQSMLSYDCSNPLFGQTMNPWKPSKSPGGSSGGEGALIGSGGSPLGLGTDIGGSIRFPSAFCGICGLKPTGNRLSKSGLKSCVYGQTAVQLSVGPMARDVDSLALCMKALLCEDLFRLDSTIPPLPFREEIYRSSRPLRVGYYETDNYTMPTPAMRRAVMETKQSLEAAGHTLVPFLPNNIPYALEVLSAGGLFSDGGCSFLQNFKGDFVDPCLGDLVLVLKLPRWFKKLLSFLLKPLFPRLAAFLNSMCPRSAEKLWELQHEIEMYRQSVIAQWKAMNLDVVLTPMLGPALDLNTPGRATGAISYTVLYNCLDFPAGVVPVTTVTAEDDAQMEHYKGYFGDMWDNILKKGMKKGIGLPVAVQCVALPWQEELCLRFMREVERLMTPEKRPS
Experimental: Mouse brain membrane proteomes were preincubated with varying concentrations of inhibitors for 10 min prior to the addition of a rhodamine-tagged fluorophosphonate (FP-rhodamine). Reactions were quenched after 10 min, subjected to SDS-PAGE, and visualized in-gel using a flatbed fluorescence scanner. Labeled proteins were quantified by measuring integrated band intensities. Dose response curves obtained from three trials at each inhibitor concentration were fit using Prism software (GraphPad) to

[2] = target: T2, Neutral cholesterol ester hydrolase 1 (Mus musculus, UniProt Q8BLF1); test: Serine Hydrolase Activity Assay
T2 sequence (Q8BLF1 whole entry): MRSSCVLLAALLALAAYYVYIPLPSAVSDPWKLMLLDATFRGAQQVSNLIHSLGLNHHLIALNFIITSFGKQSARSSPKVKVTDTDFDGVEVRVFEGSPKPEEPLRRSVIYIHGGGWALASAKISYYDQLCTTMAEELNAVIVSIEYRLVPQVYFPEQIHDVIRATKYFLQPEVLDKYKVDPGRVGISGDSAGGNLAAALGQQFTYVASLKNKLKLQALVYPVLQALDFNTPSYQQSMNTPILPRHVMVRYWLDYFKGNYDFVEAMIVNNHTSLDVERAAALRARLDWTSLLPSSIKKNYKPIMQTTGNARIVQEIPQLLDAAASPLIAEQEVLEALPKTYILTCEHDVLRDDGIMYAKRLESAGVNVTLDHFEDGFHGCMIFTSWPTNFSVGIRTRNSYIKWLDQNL
From the text: (§1) Serine hydrolase targets were recombinantly expressed in COS-7 cells by transient transfection. IC50 values were obtained by competitive ABPP with FP-rhodamine.

Monoglyceride lipase = target: T3, Monoglyceride lipase (Mus musculus, UniProt O35678); test: Serine Hydrolase Activity Assay
T3 sequence (O35678 whole entry): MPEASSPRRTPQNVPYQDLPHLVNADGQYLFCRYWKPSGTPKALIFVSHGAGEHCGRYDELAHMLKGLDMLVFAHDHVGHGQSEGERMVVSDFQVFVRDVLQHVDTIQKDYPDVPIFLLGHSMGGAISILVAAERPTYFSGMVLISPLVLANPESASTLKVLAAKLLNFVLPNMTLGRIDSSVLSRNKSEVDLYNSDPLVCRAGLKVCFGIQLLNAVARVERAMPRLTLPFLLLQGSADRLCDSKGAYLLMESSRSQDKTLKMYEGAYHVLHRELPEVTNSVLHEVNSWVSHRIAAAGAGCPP
From the text: as §1

[3] = target: T4, Monoacylglycerol lipase ABHD6 (Mus musculus, UniProt Q8R2Y0); test: Serine Hydrolase Activity Assay
T4 sequence (Q8R2Y0 whole entry): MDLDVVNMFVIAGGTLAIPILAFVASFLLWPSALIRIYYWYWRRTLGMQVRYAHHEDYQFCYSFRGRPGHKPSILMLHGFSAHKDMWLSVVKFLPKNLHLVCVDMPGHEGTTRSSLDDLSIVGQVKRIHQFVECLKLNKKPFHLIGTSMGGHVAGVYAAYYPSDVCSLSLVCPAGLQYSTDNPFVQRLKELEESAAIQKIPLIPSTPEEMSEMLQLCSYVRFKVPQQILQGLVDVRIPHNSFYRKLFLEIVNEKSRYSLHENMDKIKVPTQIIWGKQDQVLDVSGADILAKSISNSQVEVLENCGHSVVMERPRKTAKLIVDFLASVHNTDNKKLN
From the text: as §1

pIC50 [1]: 7.89
pIC50 [2]: 8.09
pIC50 (Monoglyceride lipase): 8.28
pIC50 [3]: 10.05
Compound: CN(C)C(=O)n1nnnc1Cc1ccc(-c2ccccc2)cc1 [N,N-dimethyl-5-[(4-phenylphenyl)methyl]-1H-1,2,3,4-tetrazole-1-carboxamide]
